According to paper PMC6154633, “In Vitro Anticancer Activity and Structural Characterization of Ubiquinones from Antrodia cinnamomea Mycelium” (Molecules : A Journal of Synthetic Chemistry and Natural …, 2017):

Key:
MDCK cells = experiment: Cytotoxicity, cell counting kit-8 assay, MDCK normal cell line; assay type: cell-based; conditions: Canis lupus familiaris, non-malignant cell line, 24 h treatment, mean n = 3
Procedure: (§1) Three human cancer cell lines (A549, HepG2 and PC3) and normal cell line (MDCK) were obtained from the ATCC (Manassas, VA, USA) and grown on Eagle’s minimum essential medium (EMEM, GIBCO, Waltham, MA, USA) supplemented with F12 medium containing 10% FBS, 100 IU/mL penicillin and 100 μg/mL streptomycin [17].
(§2) Viability of the human cancer cell lines and normal cell line treated with different concentrations of A. cinnamomea extracts, subfractions, and isolates was evaluated using the cell counting kit-8 assay. Briefly, a total of 5 × 10^3 cells/well (A549, HepG2, PC3, or MDCK cells) were seeded into 96-well plates for 12 h, and the cells were treated with various concentrations of the isolated compounds (0.01–100 μM, double dilution method) for 24 h. The original medium was removed, 10% of the cell counting kit-8 in PBS was added to each well, and the plates were incubated for 2 h. The absorbance was measured at 540 nm using an enzyme-linked immunosorbent assay (ELISA) plate reader.
(§3) All experiments were carried out in triplicate, and each experiment was repeated three times. Data analysis was carried out using SPSS statistical package version 18.0 (SPSS, Inc., Armonk, NY, USA). The IC50 values (the concentration of drug necessary to induce 50% inhibition) were measured for all of the tested drugs using the Probit test in the SPSS software. The cell cycle distribution values of mean and standard deviation (mean ± SD) and 95% confidence intervals (CI) of means to verify the statistical significance of all parameters were calculated. The p-values of < 0.05 were adopted as statistically significant. All data are presented in this report as means ± SD of three replicates from three separate experiments.

PC3 cells = experiment: Cytotoxicity, cell counting kit-8 assay, PC3; assay type: cell-based; conditions: Homo sapiens, PC-3, mean n = 3
Procedure: as §1, §2, §3

A549 cells = experiment: Cytotoxicity, cell counting kit-8 assay, A549; assay type: cell-based; conditions: Homo sapiens, mean n = 3
Procedure: as §1, §2, §3

HepG2 cells [1] = experiment: Cytotoxicity, cell counting kit-8 assay, HepG2; assay type: cell-based; conditions: Homo sapiens, 24 h treatment, mean n = 3
Procedure: as §1, §2, §3

[2] = system: A549, HepG2, and PC3 cell lines; experiment: Cytotoxicity against three human cancer cell lines (summary statements); assay type: cell-based; conditions: in words
Procedure: as §1, §2, §3

HepG2 cells [3] = experiment: Cell cycle distribution analysis by flow cytometry (PI staining); assay type: cell-based, human; conditions: for G1 (%) / G2-M (%) / S (%) / sub G1 (%): 24 h, HepG2, mean ± SD
Procedure: Stock solutions of 4-acetylantrocamol LT3 (20 mM) were prepared by dissolving them in DMSO, and appropriate working dilutions were prepared with the cell culture medium prior to the experiments. For cell cycle distribution analysis, HepG2 cells were treated with DMSO (control) and 4-acetylantrocamol LT3 for 24 h. The cells were then fixed in ice-cold 70% methanol for overnight. After an additional wash with PBS, the cell pellets were stained with 1 mL of propidium iodide (PI) staining solution containing 200 μg of PI in 1 mL of PBS containing 2 mg of DNase free RNase for 30 min. Acquisition and analysis were performed by flow cytometry (FACSCalibur flow cytometer, Becton, Dickinson and Co., Franklin Lakes, NJ, USA) with excitation at 488 nm. Data on each sample represent the percentage of cells in the sub-G1, G1, S, G2/M phases of the cell cycle, respectively.
as §3

Row | Structure (SMILES) | IC50 (MDCK cells) [µM] | IC50 (PC3 cells; 24 h treatment) [µM] | IC50 (A549 cells; A549, 24 h, 24 h treatment) [µM] | IC50 (HepG2 cells [1]) [µM] | other results
1 | COC1=CC(=O)C(CC=C(C)CCC=C(C)CCC=C(C)C)=C(C)C1=O [Compound 1, 5-methoxy-3-methyl-2-(3,7,11-trimethyldodeca-2,6,10-trienyl)cyclohexa-2,5-diene-1,4-dione] | > 100 | 0.014 | 0.382 | > 100 | –
2 | COc1cc([C@@H]2c3cc4c(cc3[C@@H](O[C@@H]3O[C@@H]5CO[C@@H](C)O[C@H]5[C@H](O)[C@H]3O)[C@H]3COC(=O)[C@H]23)OCO4)cc(OC)c1O [Vepesid, reference compound] | – | – | – | 4.05 | –
3 | COc1cc(C)c(O)c(OC)c1O [Compound 10, 2,4-dimethoxy-6-methyl-benzene-1,3-diol] | > 100 | > 100 | > 100 | > 100 | activity against the cancer cell lines [2]: poor activity
4 | CC(=O)O[C@H]1C(=O)[C@@]2(C)[C@H]([C@H](OC(=O)c3ccccc3)[C@]3(O)C[C@H](OC(=O)[C@H](O)[C@@H](NC(=O)c4ccccc4)c4ccccc4)C(C)=C1C3(C)C)[C@]1(OC(C)=O)CO[C@@H]1C[C@@H]2O [Taxol, reference compound] | – | – | – | – | IC50 (PC3 cells; positive control, unit given in row label): 0.000461 µM; IC50 (A549 cells; A549, positive control, unit given in row label): 0.000354 µM
5 | COc1cc(C)c(OC)c2c1OCO2 [Compound 9, 4,7-dimethoxy-5-methyl-1,3-benzodioxole] | > 100 | 13.3 | > 100 | > 100 | activity against the cancer cell lines [2]: poor activity
6 | COC1=C(OC)[C@H](O)[C@H](C/C=C(\C)CC/C=C(\C)C[C@H]2C[C@@H](C)C(=O)O2)[C@@H](C)C1=O [Compound 7, antroquinonol B] | > 100 | 1.03 | 6.03 | 21.4 | –
7 | COC1=C(OC)[C@H](O)[C@H](C/C=C(\C)CC/C=C(\C)CCC=C(C)C)[C@@H](C)C1=O [Compound 5, antroquinonol] | 10.5 | 0.073 | 0.421 | 0.044 | –
8 | COC1=C(OC)C(=O)C(C/C=C(\C)CC/C=C(\C)CCC=C(C)C)=C(C)C1=O [Compound 3, quinone Q3] | > 100 | 0.06 | 4.16 | > 100 | –
9 | COC1=C(OC)[C@H](OC(C)=O)[C@H](C/C=C(\C)CC/C=C(\C)C[C@H]2C[C@@H](C)C(=O)O2)[C@@H](C)C1=O [Compound 8, 4-acetylantroquinonol B] | > 100 | 20.3 | 35.9 | > 100 | –
10 | COC1=C(OC)[C@H](OC(C)=O)[C@H](C/C=C(\C)CC/C=C(\C)C/C=C/C(C)(C)O)[C@@H](C)C1=O [Compound 2, 4-acetylantrocamol LT3] | > 100 | 4.29 | 0.027 | 0.128 | G1 (%) (HepG2 cells [3]; 1 μM): 37.4 ± 4.2%; G2-M (%) (HepG2 cells [3]; 1 μM): 33.6 ± 4.7%; S (%) (HepG2 cells [3]; 1 μM): 15.4 ± 1.6%; sub G1 (%) (HepG2 cells [3]; 1 μM): 6.0 ± 0.7%; G1 (%) (HepG2 cells [3]; 10 μM): 32.9 ± 2.4%; G2-M (%) (HepG2 cells [3]; 10 μM): 33.6 ± 5.6%; S (%) (HepG2 cells [3]; 10 μM): 19.3 ± 4.9%; sub G1 (%) (HepG2 cells [3]; 10 μM): 9.2 ± 2.1%; sub-G1 phase accumulation compared with control cells (HepG2 cells [3]; HepG2, 24 h, dose dependent): 4–7 fold
11 | COC1=C(OC)[C@H](O)[C@H](C/C=C(\C)CC/C=C(\C)C/C=C/C(C)(C)O)[C@@H](C)C1=O [Compound 4, antrocamol LT3] | > 100 | 0.001 | – | 0.106 | –
12 | COC1=C(OC)[C@H](OC(C)=O)[C@H](C/C=C(\C)CC/C=C(\C)CCC=C(C)C)[C@@H](C)C1=O [Compound 6, 4-acetylantroquinonol] | 41.6 | 2.31 | 0.611 | 0.075 | –
13 | CC(C)=CCOc1ccc(C2=C(CC(C)C)C(=O)OC2=O)cc1 [Compound 11, antrodin A] | > 100 | > 100 | > 100 | 90.4 | activity against the cancer cell lines [2]: poor activity
